Measured values taken from US20240009174A1, “METHODS FOR DISRUPTING MITOCHONDRIAL UNFOLDED PROTEIN RESPONSE” (Health Research, Inc., priority 2020, published 2024).

Assays:
[1] = test system: PCa cells (LNCaP and PC-3); experiment: Cell death / apoptosis in PCa cells (Annexin V FITC/PI flow cytometry); type: cell-based
Method: FIG. 6. Pharmacological inhibition of HSP60-ClpP interaction induces UPR^mt and PCa cell death. (A) Docking of DCEM1 into apical domain of HSP60. (B) LNCaP and PC-3 cells were treated with DCEM1 for 24 hours and HSP60-ClpP interaction was analyzed by co-immunoprecipitation assay. (C) LNCaP and PC-3 cells were treated with DCEM1 for 24 hours and mitoROS levels were analyzed by flow cytometry using mitoSOX dye. (D) LNCaP and PC-3 cells were treated with DCEM1 for 24 hours and poly-Ub protein levels were analyzed by western blotting. (E) LNCaP and PC-3 cells were treated with DCEM1 for 24 and 48 hours and apoptotic cell populations were analyzed by flow cytometry using Annexin V FITC/PI method as explained in materials and methods. In (E) top panel, the bars in each series from left to right are control, 5, 10, and 20, and in (E) bottom panel, the bars in each series from left to right are DMSO, 5, 10, and 20. (F) LNCaP and PC-3 cells were treated with DCEM1 for 24 and 48 hours and lysates were prepared and analyzed for DEVDase activity using specific peptide substrate. […] (G) LNCaP and PC-3 cells were pre-treated with SKQ1 followed by DCEM1 treatment and analyzed for cell viability by MTT assay. (H) LNCaP and PC-3 cells were treated with either DCEM1 or H2O2 (200 μM) for 24 hours and total DNA were isolated and analyzed for mtDNA damage as described in materials and methods. […]

LNCaP and PC-3 cells = experiment: Cellular ATP level; type: cell-based
Method: FIG. 7. Pharmacological inhibition of HSP60-ClpP interaction induces metabolic stress in PCa cells. (A) LNCaP and PC-3 cells were pre-treated with either rotenone or antimycin-A followed by DCEM1 treatment and mitochondrial ROS was analyzed as described in material and methods (data represented as fold change compared to control). In (A), the bars in each series from left to right are control, DCEM1, Rot+DCEM1, Anti A+DCEM1, Rot, and Anti A (B) ClpP protein was over-expressed in LNCaP and PC-3 cells followed by DCEM1 treatment and mitochondrial ROS was analyzed as described in material and methods (Data represented as fold change compared to control). […] (C) ClpP protein was over-expressed in LNCaP and PC-3 cells followed by DCEM1 treatment and level of poly-ubiquitinated protein was analyzed by western blotting. (D) ClpP protein was over-expressed in LNCaP and PC-3 cells followed by DCEM1 treatment and DEVDase activity was analyzed as described in material and methods (Data represented as fold change compared to control). […] (E) Mitochondrial membrane potential (mitoMP) was analyzed in LNCaP and PC-3 cells treated with DCEM1 as described in material and methods (Data represented as fold change compared to control). […] (F) ATP level was analyzed in LNCaP and PC-3 cells treated with DCEM1 as described in material and methods (Data represented as fold change compared to control). […]

For CCOc1cc(CNCc2nc3ccccc3[nH]2)ccc1OCc1cccs1 [DCEM1], the apoptotic cell death ([1]; LNCaP and PC-3 cells, 24 and 48 hours, Annexin V FITC/PI) was “apoptotic cell death was observed”, the “cell death in PCa cells” value ([1]; PCa cells) was “robust cell death” and the “cellular ATP” value (LNCaP and PC-3 cells) was “reduction of cellular ATP”.
